Laboratory results published in patent publication US20210210190A1, “Diagnostic Method” (Amazentis SA, priority 2019, published 2021).
“And” between values parts separate entries of the source, which are not always exact repeats. Identical values can stand only once.

Columns and labels:
[1] = Study of pomegranate juice and oral urolithin A: urolithin A glucuronide in dried blood spots (Example 3); assay type: in vivo, human; conditions: dried blood spot, 24 hours after 500 mg Urolithin A softgel capsule; individual subjects 1-7; listed as UA
Method: A study was conducted in seven subjects. At the beginning of the study a sample of capillary blood via a finger prick was taken from each subject and 15-20 uL of whole blood was dried onto a dried blood sample (DBS) filter paper sample card (Whatman, Little Chalfont, Buckinghamshire, UK). A minimum of 2 spots per sampling were collected for each time-point. At T0 i.e. baseline sample, subjects ingested 80 ml pomegranate juice (freshly prepared/). At 24 hours following pomegranate juice intake, a further dried blood spot sample was taken and 15-20 uL of whole blood was dried onto a DBS filter paper card. Following this, subjects ingested 500 mg of Urolithin A in a softgel capsule and then at 48 hours (or 24 hours following UA intake), a further dried blood spot sample was taken and 15-20 uL of whole blood was dried onto DBS filter paper sample card.
This analytical method was developed to analyse whole blood spot samples collected on dry blood spot sample cards (DBS Filter card) in Example 3.
Each dried blood spot was punched from cards using a 6 mm diameter puncher and transferred into a tube. Afterwards 150 μL of methanol containing the internal standard was added. […]
The quantification of UA-glucuronide was performed by column separation with reversed-phase chromatography followed by detection with triple-stage quadrupole MS/MS in the selected reaction monitoring mode.

[2] = Single ascending dose study in healthy elderly subjects: Urolithin A glucuronide in urine (Example 6, Part A); assay type: in vivo, human; conditions: mean ± standard error
Method: A single (Part A) and multiple (Part B) dose study of urolithin A was conducted to evaluate the safety, tolerability, pharmacokinetics and pharmacodynamics profile in healthy elderly subjects.
Part A: The study was a double-blind, randomized, single ascending doses, study in 24 healthy elderly male and female volunteers. Each subject was randomized for two subsequent doses in three cohorts.
1100 mg soft gel capsule containing 250 mg of urolithin A (as described in Example 2 above). Soft gel capsules were blister-packed in bulk, Labelling was in accordance with local regulatory specifications and requirements.
Part A: Single oral dose administration on D1 of each period according to the randomisation. The administration took place around 8:00 am with around 200 mL tap water, in sitting position, and under fasting conditions.
Cohort 1 (8 subjects): 250 mg urolithin A (6 subjects) or placebo (2 subjects) capsule soft gel formulation then 2000 mg urolithin A or placebo capsule soft gel formulation. Cohort 2 (8 subjects): 500 mg urolithin A (6 subjects) or placebo (2 subjects) capsule soft gel formulation. Cohort 3 (8 subjects): 1000 mg urolithin A (6 subjects) or placebo (2 subjects) capsule soft gel formulation.
In Part A of the study, total urine was collected during the following intervals: 0-4 h, 4-8 h, 8-12 h, 12-24 h and 24-36 h post-dose. The collected urine volume of each collection period was carefully measured by weight and recorded in the eCRF, as well as the exact start and stop time of the collection interval. Each fraction of collected urine was homogenized and 2 aliquots of 5 mL per interval were kept and stored below −80° C. Following a protocol amendment to extend the blood sampling scheme from 36 to 96 h post-dose, additional spot urine samples were taken 72 and 96 h post-dose but urine was not collected quantitatively.
The concentrations of Urolithin A and its metabolites in urine was determined using validated LC-MS/MS assays. The limit of quantification (LOQ) was 10 ng/mL for Urolithin A in urine and 50 ng/mL for Urolithin A glucuronide and Urolithin A sulphate in urine.

## O=c1oc2cc(O)ccc2c2ccc(O)cc12 [Urolithin A]
[1]
  500 mg single UA dosing 24 h UA levels: 153 ng/mL and 93.0 ng/mL and 98.0 ng/mL and 125 ng/mL and 134 ng/mL and 173 ng/mL
[2]; 250 mg dose, Predose
  Urolithin A glucuronide in urine: 4,114 ± 1,261 ng/mL
[2]; 250 mg dose, T0-T4 h
  Urolithin A glucuronide in urine: 8,536 ± 1,394 ng/mL
[2]; 250 mg dose, T4 h-T8 h
  Urolithin A glucuronide in urine: 31,617 ± 7,637 ng/mL
[2]; 250 mg dose, T8 h-T12 h
  Urolithin A glucuronide in urine: 40,453 ± 9,275 ng/mL
[2]; 250 mg dose, T12 h-T24 h
  Urolithin A glucuronide in urine: 62,817 ± 8,454 ng/mL
[2]; 250 mg dose, T24 h-T36 h
  Urolithin A glucuronide in urine: 33,962 ± 8,708 ng/mL
[2]; 500 mg dose, Predose
  Urolithin A glucuronide in urine: 4,114 ± 1,261 ng/mL
[2]; 500 mg dose, T0-T4 h
  Urolithin A glucuronide in urine: 40,167 ± 6,802 ng/mL
[2]; 500 mg dose, T96 spot urine
  Urolithin A glucuronide in urine: 8,720 ± 3,113 ng/mL
[2]; 500 mg dose, T4 h-T8 h
  Urolithin A glucuronide in urine: 86,758 ± 12,051 ng/mL
[2]; 500 mg dose, T8 h-T12 h
  Urolithin A glucuronide in urine: 63,800 ± 9,043 ng/mL
[2]; 500 mg dose, T12 h-T24 h
  Urolithin A glucuronide in urine: 81,125 ± 10,792 ng/mL
[2]; 500 mg dose, T24 h-T36 h
  Urolithin A glucuronide in urine: 44,242 ± 4,631 ng/mL
[2]; 500 mg dose, T72 h spot urine
  Urolithin A glucuronide in urine: 15,706 ± 3,751 ng/mL
[2]; 1000 mg dose, Predose
  Urolithin A glucuronide in urine: 4,114 ± 1,261 ng/mL
[2]; 1000 mg dose, T0-T4 h
  Urolithin A glucuronide in urine: 70,492 ± 12,094 ng/mL
[2]; 1000 mg dose, T96 spot urine
  Urolithin A glucuronide in urine: 16,335 ± 3,897 ng/mL
[2]; 1000 mg dose, T4 h-T8 h
  Urolithin A glucuronide in urine: 76,417 ± 10,635 ng/mL
[2]; 1000 mg dose, T8 h-T12 h
  Urolithin A glucuronide in urine: 64,967 ± 8,075 ng/mL
[2]; 1000 mg dose, T12 h-T24 h
  Urolithin A glucuronide in urine: 107,983 ± 17,683 ng/mL
[2]; 1000 mg dose, T24 h-T36 h
  Urolithin A glucuronide in urine: 59,575 ± 9,560 ng/mL
[2]; 1000 mg dose, T72 h spot urine
  Urolithin A glucuronide in urine: 29,412 ± 5,717 ng/mL
[2]; 2000 mg dose, Predose
  Urolithin A glucuronide in urine: 4,114 ± 1,261 ng/mL
[2]; 2000 mg dose, T0-T4 h
  Urolithin A glucuronide in urine: 39,500 ± 6,033 ng/mL
[2]; 2000 mg dose, T96 spot urine
  Urolithin A glucuronide in urine: 38,487 ± 12,858 ng/mL
[2]; 2000 mg dose, T4 h-T8 h
  Urolithin A glucuronide in urine: 65,317 ± 10,853 ng/mL
[2]; 2000 mg dose, T8 h-T12 h
  Urolithin A glucuronide in urine: 50,450 ± 5,793 ng/mL
[2]; 2000 mg dose, T12 h-T24 h
  Urolithin A glucuronide in urine: 114,817 ± 12,123 ng/mL
[2]; 2000 mg dose, T24 h-T36 h
  Urolithin A glucuronide in urine: 60,533 ± 12,216 ng/mL
[2]; 2000 mg dose, T72 h spot urine
  Urolithin A glucuronide in urine: 70,567 ± 17,054 ng/mL
